Data from US20230277669A1, “USES OF UROLITHINS” (Amazentis SA, priority 2022, published 2023).

System: human CD8^+ T cells
Test: Human CD3+ T cells from PBMC stimulated with aCD3/aCD28 beads in presence of UA
Format: cell-based
Design: frequency of human TSCM cells (CD45RA+CCR7hiCD62L+CD95+CD8+): dose or concentration left out as unconfirmed
Description: (FIG. 5L) UA induces PGC-1α expression in stimulated CD8+ cells. PGC-1α MFI at 48 h upon stimulation, as assessed by intracellular staining, is shown (n=3). One of two independent experiments are shown. Data are mean ± SD, statistical analysis was performed by two-sided t-test (p**<0.01). (FIG. 5M) Mitochondrial content of TIL CD8+ cells harvested from APTK-carrying mice, fed UA or control diet as depicted in FIG. 1J. Assessed by Mitotracker Red staining. Data are mean ± SD, *p < 0.05 by two-sided t-test. (FIG. 5N) Mitophagy and subsequent PGAM5 release drive PGC-1α upregulation. PGC-1α expression of CD8+ cells derived from Pink1^-/- KO mice upon 48 h stimulation in vitro in the presence of UA or DMSO control (n=4). Data are mean ± SD, statistical analysis was performed by two-sided t-test. Depicts one of two independent experiments. (FIG. 5O) Mitophagy and subsequent PGAM5 release drive PGC-1 α upregulation. PGC-1α expression of CD8+ cells derived from PGAM5^-^/- mice upon 48 h stimulation in vitro in the presence of UA or DMSO control (n=4). Data are mean ± SD, statistical analysis was performed by two-sided t-test. […] Cells were co-treated with DMSO, UA and an inhibitor of PGC-1α (PGC-1αi) as indicated (n=4). One of two independent experiments are shown. Data are mean ± SD, statistical analysis was performed by two-sided t-test (p**<0.01; ***p <0.001; n.s. not significant).(FIG. 5Q) Urolithin A induces TSCM in human CD8+ cells: Schematic overview. PBMC were isolated from healthy donors, prior to T cell purification and in vitro stimulation via aCD3/aCD28 stimulation beads at the presence of UA or DMSO control. (FIG. 5R) Quantification of human TSCM (n=4). Representative data of one out of five donors with the same result are shown. (FIG. 5S) Quantification of TMRM^loCD8+ human cells 48 h after activation in the presence of UA or DMSO control (n=4). (FIG. 5T) TCF1 expression in human CD8 cells as assessed by flow cytometry (n=4). All data are mean ± SD; statistical analysis was performed by two-sided t-test (*p < 0.05; p**<0.01; p****0.0001).
(FIG. 6A) Human PBMC were isolated from healthy donors, T cells were purified and stimulated ex-vivo with αCD3/αCD28 in the presence of UA ([…]) or DMSO control.
(FIG. 6B) Frequency of human TSCM 48 h after stimulation as shown in (A). Data are mean ± SD, n=4, ****p<0.0001 by one-way ANOVA followed by Tukey’s multiple comparison test.
(FIG. 6C) Quantification of human TMRM^loCD8^+ T cells 48 h after stimulation in the presence of UA or DMSO control .Data are mean ± SD, n=4,**p<0.01 by two-sided t test.
(FIG. 6D) TCF1 expression in human CD8+ T cells 48 h after stimulation in the presence of UA or DMSO control. Data are mean ± SD, n=4,*p<0.05by two-sided t test. […]

Compound: O=c1oc2cc(O)ccc2c2ccc(O)cc12 [Urolithin A]
- CD95hiCD62L+ cells within the CD45RA+CCR7hiCD8+ compartment: dose-dependent increase
- TCF1 expression (intracellular staining) (48 h): increased TCF1 expression
- frequency of human TSCM cells (CD45RA+CCR7hiCD62L+CD95+CD8+) (48 h, five out of five individual donors): increased the frequency
- mitochondrial membrane potential (after 48 hours): decreased mitochondrial membrane potential
